According to ChEMBL document CHEMBL3272351, “[1-(L-2-hydroxy-3-mercaptopropanoic acid)] analogues of arginine-vasopressin, [8-D-arginine]vasopressin, and [4-valine,8-D-arginine]vasopressin” (J Med Chem, 1977):
Blank lines part the entries; values can stand above or below the compound they belong to. Positions of bridges follow the written chain, without caps; N, C: chain ends. Non-standard residues stand in square brackets, D forms with d. Residues, ends and D or L forms follow the SMILES beside them. Mpa = O=C(O)CCS

What was measured:
[1] = Oxytocic activity in rat uterus in presence of Mg2+; type: functional
[2] = Retardation factor of the compound in ethyl acetate-pyridine-acetic acid-water (5:5:1:3 v/v) by TLC analysis; type: physicochemical; conditions: buffer
Rattus norvegicus [3] = species: Rattus norvegicus; test: Vasopressor activity in rat; type: organism-based; conditions: in vivo
[4] = Oxytocic activity in rat uterus in absence of Mg2+; type: functional
[5] = Retardation factor of the compound in butan-1-ol-water (1:1 v/v) by TLC analysis; type: physicochemical; conditions: buffer
[6] = Retardation factor of the compound in butan-1-ol-acetic acid-water (4:1:5 v/v) by TLC analysis; type: physicochemical; conditions: buffer
Rattus norvegicus [7] = test: Antidiuretic activity in iv dosed rat; type: functional, Urine
Rattus norvegicus [8] = species: Rattus norvegicus; test: Ratio of antidiuretic activity in rat to vasopressor activity in rat; set-up: species or system Urine
Rattus norvegicus [9] = test: Antidiuretic activity in sc dosed Brattleboro rat assessed as spontaneous urine output measured every 1 hr for 24 hrs; type: functional
Rattus norvegicus [10] = species: Rattus norvegicus; test: Ratio of antidiuretic activity in Brattleboro rat to vasopressor activity in rat; set-up: species or system Urine

SMILES: NC(=O)CC[C@@H]1NC(=O)[C@H](Cc2ccccc2)NC(=O)[C@H](Cc2ccc(O)cc2)NC(=O)[C@@H](O)CSSC[C@@H](C(=O)N2CCC[C@H]2C(=O)N[C@@H](CCCN=C(N)N)C(=O)NCC(N)=O)NC(=O)[C@H](CC(N)=O)NC1=O
Activity [1]: 96 U/mg
Rf [2]: 0.68
Activity (Rattus norvegicus [3]): 549 U/mg
Activity [4]: 31 U/mg
Rf [5]: 0.22
Rf [6]: 0.45
Activity (Rattus norvegicus [7]): 467 U/mg
Ratio (Rattus norvegicus [8]): 0.9

SMILES: CC(C)[C@@H]1NC(=O)[C@H](Cc2ccccc2)NC(=O)[C@H](Cc2ccc(O)cc2)NC(=O)CCSSC[C@@H](C(=O)N2CCC[C@H]2C(=O)N[C@H](CCCNC(=N)N)C(=O)NCC(N)=O)NC(=O)[C@H](CC(N)=O)NC1=O ([Mpa]YFVNCP[dR]G-NH2; disulfide 1-6)
Activity [1]: 2 U/mg
Activity (Rattus norvegicus [3]): < 0.01 U/mg
Activity (Rattus norvegicus [9]): 1230 U/mg
Activity [4]: 8 U/mg
Ratio (Rattus norvegicus [10]): >123000

SMILES: NC(=O)CC[C@@H]1NC(=O)[C@H](Cc2ccccc2)NC(=O)[C@H](Cc2ccc(O)cc2)NC(=O)[C@@H](N)CSSC[C@@H](C(=O)N2CCC[C@H]2C(=O)N[C@@H](CCCN=C(N)N)C(=O)NCC(N)=O)NC(=O)[C@H](CC(N)=O)NC1=O [VASOPRESSIN]
Activity [1]: 57 U/mg
Activity (Rattus norvegicus [3]): 382 U/mg
Activity (Rattus norvegicus [9]): 330 U/mg
Activity [4]: 16 U/mg
Ratio (Rattus norvegicus [10]): 0.9

SMILES: NC(=O)CC[C@@H]1NC(=O)[C@H](Cc2ccccc2)NC(=O)[C@H](Cc2ccc(O)cc2)NC(=O)[C@@H](O)CSSC[C@@H](C(=O)N2CCC[C@H]2C(=O)N[C@H](CCCN=C(N)N)C(=O)NCC(N)=O)NC(=O)[C@H](CC(N)=O)NC1=O
Activity [1]: 2.6 U/mg
Rf [2]: 0.68
Activity (Rattus norvegicus [3]): 0.86 U/mg
Activity [4]: 4.3 U/mg
Rf [5]: 0.22
Rf [6]: 0.45
Activity (Rattus norvegicus [7]): 886 U/mg
Ratio (Rattus norvegicus [8]): 1030

SMILES: N=C(N)NCCC[C@H](NC(=O)[C@@H]1CCCN1C(=O)[C@@H]1CSSCCC(=O)N[C@@H](Cc2ccc(O)cc2)C(=O)N[C@@H](Cc2ccccc2)C(=O)N[C@@H](CCC(N)=O)C(=O)N[C@@H](CC(N)=O)C(=O)N1)C(=O)NCC(N)=O [DESMOPRESSIN]
Activity [1]: 167 U/mg
Activity [4]: 54 U/mg

The next lines start with results.

Activity (Rattus norvegicus [3]): 0.037 U/mg
SMILES: CC(C)[C@@H]1NC(=O)[C@H](Cc2ccccc2)NC(=O)[C@H](Cc2ccc(O)cc2)NC(=O)[C@@H](N)CSSC[C@@H](C(=O)N2CCC[C@H]2C(=O)N[C@H](CCCN=C(N)N)C(=O)NCC(N)=O)NC(=O)[C@H](CC(N)=O)NC1=O
Activity [1]: 0.9 U/mg
Activity [4]: 0.6 U/mg
Activity (Rattus norvegicus [7]): 653 U/mg
Ratio (Rattus norvegicus [8]): 17650

Rf [2]: 0.85
Activity (Rattus norvegicus [3]): < 0.02 U/mg
Rf [5]: 0.48
Rf [6]: 0.68
SMILES: CC(C)[C@@H]1NC(=O)[C@H](Cc2ccccc2)NC(=O)[C@H](Cc2ccc(O)cc2)NC(=O)[C@@H](O)CSSC[C@@H](C(=O)N2CCC[C@H]2C(=O)N[C@H](CCCN=C(N)N)C(=O)NCC(N)=O)NC(=O)[C@H](CC(N)=O)NC1=O
Activity [1]: 2.8 U/mg
Activity [4]: 1.1 U/mg
Activity (Rattus norvegicus [7]): 892 U/mg
Ratio (Rattus norvegicus [8]): >45000
